Where two headings read alike, the source gives them in different places.
Test: Phase 1 rising-single-dose pharmacokinetic study in healthy adult subjects (Example 1)
Assay type: in vivo, human
Details: for half-life / AUC / Tmax / Cmax / Vd/F: human; for AUC: po; for DN AUC(l) / DN AUC(tf) / DN Cmax: dose-normalized (to 50 mg)
Procedure: A Phase 1, randomized, third-party-blind (within dose level), placebo-controlled, rising-single-dose study of compounds of Formulae I-XXVI was conducted in healthy adult subjects.
Nine subjects in each group received either compound of Formula Ia (n=6) or placebo (n=3). Those subjects randomized to active compound received one of the following doses of compound of Formula Ia: 50, 100, 200, 400, 600, or 800 mg.
On Day 1, at least 10 hours prior to compound administration, an overnight fast was maintained until 4 hours following treatment administration, after which lunch was served. During the fasting period, no food or fluid (except noncarbonated water) was permitted; furthermore, drinking water was prohibited from 2 hours predose to 2 hours postdose, with the exception of the approximately 240 mL administered with the treatments.
Blood samples (7 mL each) for the determination of compound of Formula Ia concentrations were collected immediately prior to dosing (0 hour), and at 0.25, 0.5, 0.75, 1, 1.5, 2, 3, 4, 5, 6, 8, 10, 12, 18, 24, 36, 48, 72, and 144 hours postdose. The blood samples were collected into tubes containing EDTA. The samples were separated by centrifugation at 4° C. for 15 minutes at 1500 g to obtain the plasma, and the plasma samples frozen at −20° C. until assayed.
Plasma concentrations of compound of Formula Ia were determined using a validated liquid chromatography tandem mass spectrometry (LC-MS/MS) method. The assay lower limit of quantitation (LLOQ) was 0.50 ng/mL, and the method was validated over the concentration range of 0.50 to 1000 ng/mL.
The mean and percent coefficients of variation (% CV) were calculated for the plasma concentrations of compound of Formula Ia at each time point. Concentration values less than the assay LLOQ were reported as and set to zero in the calculations and tables. The plasma concentration-time data for compound of Formula Ia were subjected to pharmacokinetic analysis by noncompartmental methods using WinNonlin software. Nominal sampling times were used for pharmacokinetic analysis.
For each subject, the following compound of Formula Ia pharmacokinetic parameters were determined: • Cmax Maximum observed plasma concentration • Tmax Time of maximum observed plasma concentration • tf Time of final quantifiable sample • AUC(tf) Area under the plasma concentration-time curve from time 0 to tf • AUC(l) Area under the plasma concentration-time curve from time 0 to infinity [AUC(l)=[…]+C(tf)estimated/k, where k and C(tf)estimated are terminal elimination rate constant and estimated concentration at final quantifiable sample, respectively] • t½ Terminal-phase half-life (t½=ln 2/k) • CL/F Apparent total body clearance (CL/F=Dose/AUC[l]) • Vd/F Apparent volume of distribution (Vd/F=CL/F*(t1/2/0.693))
Dose-adjusted (to 50 mg) Cmax, AUC(l), and AUC(tf) values were also calculated. Cmax, Tmax, and if were the observed values. The terminal phase rate constant (k) was calculated as the negative of the slope of the log-linear terminal portion of the plasma concentration-time curve using linear regression (at least three time points). The number of points needed to determine the terminal phase rate constant was selected by WinNonlin software.
Summary statistics, including means, standard deviations, and coefficients of variation (CV) expressed as a percent, were computed for the single-dose plasma compound of Formula Ia concentration data at each sampling time point and for the derived pharmacokinetic parameters for each dose level using a standard program based on SAS/STAT (Release 6.12; SAS Institute Inc., North Carolina).
The log-transformed dose-adjusted (to 50 mg) Cmax and AUC values of compound of Formula Ia were statistically analyzed using an analysis of variance (ANOVA) model. The effect due to treatment (dose) was extracted. Ninety-five percent confidence intervals (CIs) for the means at each dose level, based on the nontransformed data, were provided. […]

[1] = plasma, single oral dose 50 mg, mean, n = 6
[2] = plasma, single oral dose 100 mg, mean, n = 6
[3] = plasma, single oral dose 200 mg, mean, n = 6
[4] = plasma, single oral dose 400 mg, mean, n = 6
[5] = plasma, single oral dose 600 mg, mean, n = 6
[6] = plasma, single oral dose 800 mg, mean, n = 6
[7] = single oral dose 50 mg, mean, n = 6
[8] = single oral dose 100 mg, mean, n = 6
[9] = single oral dose 200 mg, mean, n = 6
[10] = single oral dose 400 mg, mean, n = 6
[11] = single oral dose 600 mg, mean, n = 6
[12] = single oral dose 800 mg, mean, n = 6

## CC(C)(C)NC(=O)N[C@H](C(=O)N1C[C@H]2[C@@H]([C@H]1C(=O)NC(CC1CCC1)C(=O)C(N)=O)C2(C)C)C(C)(C)C (mixture of isomers) [Formula Ia, (1 R, 5S)-N-[3-Amino-1-(Cyclobutylmethyl)-2,3-Dioxopropyl]-3-[2(S)-[[[(1,1-Dimethylethyl)Amino]Carbonyl]Amino]-3,3-Dimethyl-1-Oxobutyl]-6,6-Dimethyl-3-Azabicyclo[3.1.0]Hexan-2(S)-Carboxamide]
plasma, oral, 100-800 mg dose cohorts, read-out: mean terminal phase half-life (t½)
  half-life: 7 to 15 h
plasma, 50 mg, single oral dose 50 mg, mean, n = 6, read-out: AUC(l)
  AUC: 181 ng·h/mL
plasma, 50 mg, single oral dose 50 mg, mean, n = 6, read-out: AUC(tf)
  AUC: 179 ng·h/mL
plasma, 100 mg, single oral dose 100 mg, mean, n = 6, read-out: AUC(l)
  AUC: 345 ng·h/mL
plasma, 100 mg, single oral dose 100 mg, mean, n = 6, read-out: AUC(tf)
  AUC: 337 ng·h/mL
plasma, 200 mg, single oral dose 200 mg, mean, n = 6, read-out: AUC(l)
  AUC: 846 ng·h/mL
plasma, 200 mg, single oral dose 200 mg, mean, n = 6, read-out: AUC(tf)
  AUC: 831 ng·h/mL
plasma, 400 mg, single oral dose 400 mg, mean, n = 6, read-out: AUC(l)
  AUC: 1560 ng·h/mL
plasma, 400 mg, single oral dose 400 mg, mean, n = 6, read-out: AUC(tf)
  AUC: 1530 ng·h/mL
plasma, 600 mg, single oral dose 600 mg, mean, n = 6, read-out: AUC(l)
  AUC: 2160 ng·h/mL
plasma, 600 mg, single oral dose 600 mg, mean, n = 6, read-out: AUC(tf)
  AUC: 2140 ng·h/mL
plasma, 800 mg, single oral dose 800 mg, mean, n = 6, read-out: AUC(l)
  AUC: 2320 ng·h/mL
plasma, 800 mg, single oral dose 800 mg, mean, n = 6, read-out: AUC(tf)
  AUC: 2300 ng·h/mL
plasma, across single oral doses 50-800 mg, read-out: median Tmax
  Tmax: 1 to 2.25 h
[1]
  Cmax: 58.7 ng/mL
  Vd/F: 1070 L
plasma, single oral dose 50 mg, median, n = 6, read-out: Tmax
  Tmax: 1.5 h
[2]
  Cmax: 111 ng/mL
  Vd/F: 2680 L
plasma, single oral dose 100 mg, mean, n = 6, read-out: t½ (converted)
  half-life: 6.84 h
plasma, single oral dose 100 mg, median, n = 6, read-out: Tmax
  Tmax: 2 h
[3]
  Cmax: 281 ng/mL
  Vd/F: 3840 L
plasma, single oral dose 200 mg, mean, n = 6, read-out: t½ (converted)
  half-life: 10.8 h
plasma, single oral dose 200 mg, median, n = 6, read-out: Tmax
  Tmax: 1 h
[4]
  Cmax: 445 ng/mL
  Vd/F: 5400 L
plasma, single oral dose 400 mg, mean, n = 6, read-out: t½ (converted)
  half-life: 15.4 h
plasma, single oral dose 400 mg, median, n = 6, read-out: Tmax
  Tmax: 1.75 h
[5]
  Cmax: 528 ng/mL
  Vd/F: 4110 L
plasma, single oral dose 600 mg, mean, n = 6, read-out: t½ (converted)
  half-life: 10.2 h
plasma, single oral dose 600 mg, median, n = 6, read-out: Tmax
  Tmax: 2.25 h
[6]
  Cmax: 616 ng/mL
  Vd/F: 5450 L
plasma, single oral dose 800 mg, mean, n = 6, read-out: t½ (converted)
  half-life: 10.1 h
plasma, single oral dose 800 mg, median, n = 6, read-out: Tmax
  Tmax: 1.25 h
Single oral dose 50 mg, mean, n = 6, value could not be well characterized because of low plasma concentrations in the terminal phase, read-out: t½ (converted)
  half-life: 2.69 h
Single oral dose 50 mg, mean
  DN AUC(l): 181 ng·h/mL
  DN AUC(tf): 179 ng·h/mL
  DN Cmax: 58.7 ng/mL
[7]
  CL/F: 277 L/h
  tf (time of final quantifiable sample): 15.3 h
Single oral dose 100 mg, mean
  DN AUC(l): 172 ng·h/mL
  DN AUC(tf): 169 ng·h/mL
  DN Cmax: 55.4 ng/mL
[8]
  CL/F: 315 L/h
  tf (time of final quantifiable sample): 26 h
Single oral dose 200 mg, mean
  DN AUC(l): 212 ng·h/mL
  DN AUC(tf): 208 ng·h/mL
  DN Cmax: 70.3 ng/mL
[9]
  CL/F: 254 L/h
  tf (time of final quantifiable sample): 40.0 h
Single oral dose 400 mg, mean
  DN AUC(l): 195 ng·h/mL
  DN AUC(tf): 191 ng·h/mL
  DN Cmax: 55.7 ng/mL
[10]
  CL/F: 279 L/h
  tf (time of final quantifiable sample): 52.0 h
Single oral dose 600 mg, mean
  DN AUC(l): 180 ng·h/mL
  DN AUC(tf): 178 ng·h/mL
  DN Cmax: 44.0 ng/mL
[11]
  CL/F: 288 L/h
  tf (time of final quantifiable sample): 52 h
Single oral dose 800 mg, mean
  DN AUC(l): 145 ng·h/mL
  DN AUC(tf): 144 ng·h/mL
  DN Cmax: 38.5 ng/mL
[12]
  CL/F: 399 L/h
  tf (time of final quantifiable sample): 56 h

Reference: US20060276407A1, “Methods of treating hepatitis C virus” (Schering Corporation, priority 2005, published 2006)
